What was measured:
Format in all cases: in vivo
[1] = system: Myzus persicae; test: Myzus persicae leaf dip test (capsicum leaves, third instar nymphs); conditions: foliar, dead and moribund third instar nymphs 72 h after release, compared to untreated controls, read-out: percent mortality
Experimental: The leaf dip method was used for testing, wherein the required quantity of the compound was weighed and dissolved in a tube containing a solvent solution. The tube was put on a vortex at 2000 rpm for proper mixing and then diluted with a 0.01% Triton-X solution to the desired test concentration. Capsicum leaves were dipped in the compound solution for 10 seconds, shade dried for 20 min and then placed, with the abaxial side of the leaf up, in single cells of a bio-assay tray containing 4 ml of a solidified 1% agar-agar solution. Known numbers of third instar nymphs of Myzus persicae, collected in petri plates, were released into the cell with the treated leaf and the cell was covered with a perforated lid for better aeration. The trays were kept in a plant growth chamber at a temperature of 25° C. and a relative humidity of 70%. Observations on dead, moribund and alive nymphs were recorded 72 h after the release. Percent mortality was calculated by combining dead and moribund nymphs and comparing the result with the one of the untreated controls. The compounds

[2] = system: Bemisia tabaci; test: Bemisia tabaci leaf dip test (brinjal leaves, whitefly adults); conditions: foliar, dead and moribund whitefly adults 72 h after release, compared to untreated controls, read-out: percent mortality
Experimental: The leaf dip method was used for testing, wherein the required quantity of the compound was weighed and dissolved in a tube containing a solvent solution. The tube was put on a vortex at 2000 rpm for proper mixing and then diluted with a 0.01% Triton-X solution to the desired test concentration. Brinjal leaves were dipped in the compound solution for 10 seconds; shade dried for 20 min and then placed, with the abaxial side of the leaf up, on 4 ml of a solidified 1% agar-agar solution in respective container caps. Known numbers of freshly emerged whitefly adults were collected, using a modified aspirator, and released into a perforated container in which the cap containing the treated leaf was placed. The containers were kept in a plant growth chamber at a temperature of 25° C. and relative humidity of 70%. Observations on dead, moribund and alive adults were recorded 72 h after the release. Percent mortality was calculated by combining dead and moribund adults and comparing the result to the one of the untreated controls. The compounds 1 9 11 18 25 28 29 30 31

[3] = system: Nilaparvata lugens; test: Nilaparvata lugens seedling dip test (paddy seedlings, third instar nymphs); conditions: dead and moribund third instar nymphs 72 h after release, compared to untreated controls, read-out: percent mortality
Experimental: The seedling dip method was used for testing, wherein the required quantity of the compound was weighed and dissolved in a tube containing a solvent solution. The tube was put on a vortex at 2000 rpm for proper mixing and then diluted with a 0.01% Triton-X solution to the desired test concentration. Paddy seedlings were dipped in the compound solution for 10 seconds, shade dried for 20 min and then the seedlings were placed in glass test tubes with the roots kept in water. 15 third instar nymphs of Nilaparvata lugens were released into each test tube and the tubes were kept in a plant growth chamber at a temperature of 25° C. and relative humidity of 75%. Observations on dead, moribund and alive nymphs were recorded 72 h after the release. Percent mortality was calculated by combining dead and moribund nymphs and comparing the result to the one of the untreated controls. The compounds

Row | Structure (SMILES) | mortality at 300 ppm [1] | mortality at 300 ppm [2] | mortality at 300 ppm [3]
1 | O=S(CCC(F)(F)F)(=Nc1ccc2nn(-c3ccnnc3)cc2c1)c1ccc(F)cc1 (stereo not drawn) [Compound 70] | ≥ 70% |  | 
2 | CS(C)(=O)=Nc1cccc2nn(-c3cncc(F)c3)cc12 [Compound 87] |  | ≥ 70% | ≥ 70%
3 | CCS(=O)(CC)=Nc1cccc2nn(-c3cncc(F)c3)cc12 [Compound 89] | ≥ 70% |  | 
4 | CC(C)S(C)(=O)=Nc1cccc2nn(-c3cncc(F)c3)cc12 (stereo not drawn) [Compound 90] | ≥ 70% |  | 
5 | Cc1ccc(S(=O)(=Nc2ccc3nn(-c4cccnc4)cc3c2)N(C)C)cc1 (stereo not drawn) [Compound 93, N,N,4-trimethyl-N′-(2-(pyridin-3-yl)-2H-indazol-5-yl)benzenesulfonimidamide] |  | ≥ 70% | ≥ 70%
6 | CC(C)S(=O)(CCC(F)(F)F)=Nc1ccc2nn(-c3cccnc3)cc2c1 (stereo not drawn) [Compound 99] | ≥ 70% |  | 
7 | CC(C)S(=O)(CCC(F)(F)F)=Nc1cccc2nn(-c3cccnc3)cc12 (stereo not drawn) [Compound 102] | ≥ 70% |  | 
8 | CC(C)S(=O)(CCC(F)(F)F)=Nc1cccc2nn(-c3cncc(F)c3)cc12 (stereo not drawn) [Compound 104] |  | ≥ 70% | ≥ 70%
9 | COc1nn(-c2ccc3nn(-c4cccnc4)cc3c2)c(=O)n1C [Compound 110, 5-methoxy-4-methyl-2-(2-(pyridin-3-yl)-2H-indazol-5-yl)-2,4-dihydro-3H-1,2,4-triazol-3-one] | ≥ 70% | ≥ 70% | 
10 | COc1nn(-c2ccc3nn(-c4cncnc4)cc3c2)c(=O)n1C [Compound 119, 5-methoxy-4-methyl-2-(2-(pyrimidin-5-yl)-2H-indazol-5-yl)-2,4-dihydro-3H-1,2,4-triazol-3-one] | ≥ 70% | ≥ 70% | 
11 | CCn1c(OC)nn(-c2ccc3nn(-c4cccnc4)cc3c2)c1=O [Compound 123, 4-ethyl-5-methoxy-2-(2-(pyridin-3-yl)-2H-indazol-5-yl)-2,4-dihydro-3H-1,2,4-triazol-3-one] | ≥ 70% | ≥ 70% | 
12 | COc1nn(-c2ccc3nn(-c4cccnc4)cc3c2)c(=O)n1Cc1cccc(F)c1 [Compound 126, 4-(3-fluorobenzyl)-5-methoxy-2-(2-(pyridin-3-yl)-2H-indazol-5-yl)-2,4-dihydro-3H-1,2,4-triazol-3-one] |  | ≥ 70% | ≥ 70%
13 | CCCS(=O)(CC)=Nc1cccc2nn(-c3cccnc3)cc12 (stereo not drawn) [Compound 136] | ≥ 70% |  | 
14 | CCCS(=O)(CC)=Nc1cccc2nn(-c3cncc(F)c3)cc12 (stereo not drawn) [Compound 138] | ≥ 70% |  | 
15 | CC(C)S(C)(=O)=Nc1cnc2nn(-c3cccnc3)cc2c1 (stereo not drawn) [Compound 156] | ≥ 70% |  | 
16 | Cc1cncc(-n2cc3cc(N=S(C)(C)=O)ccc3n2)c1 [Compound 168] | ≥ 70% |  | 
17 | CCCS(C)(=O)=Nc1ccc2nn(-c3cncnc3)c(Cl)c2c1 (stereo not drawn) [Compound 180] | ≥ 70% |  | 
18 | CS(C)(=O)=Nc1ccc(Cl)c2nn(-c3cccnc3)cc12 [Compound 217] | ≥ 70% |  | 
19 | CCCS(=O)(=Nc1ccc2nn(-c3cccnc3)cc2c1)C(C)C (stereo not drawn) [Compound 256] | ≥ 70% |  | 
20 | COc1nn(-c2ccc3nn(-c4cncc(F)c4)cc3c2)c(=O)n1Cc1ccccc1F [Compound 355, 4-(2-fluorobenzyl)-2-(2-(5-fluoropyridin-3-yl)-2H-indazol-5-yl)-5-methoxy-2,4-dihydro-3H-1,2,4-triazol-3-one] |  | ≥ 70% | ≥ 70%
21 | CCOc1nn(-c2ccc3nn(-c4cccnc4)cc3c2)c(=O)n1Cc1ccccc1F [Compound 358, 5-ethoxy-4-(2-fluorobenzyl)-2-(2-(pyridin-3-yl)-2H-indazol-5-yl)-2,4-dihydro-3H-1,2,4-triazol-3-one] |  | ≥ 70% | ≥ 70%
22 | CCCCS(=N)(=O)c1ccc2nn(-c3cccnc3)cc2c1 (stereo not drawn) [Compound 385, butyl(imino)(2-(pyridin-3-yl)-2H-indazol-5-yl)-λ^6-sulfanone] |  | ≥ 70% | ≥ 70%
23 | CCCCS(=O)(=NCC)c1ccc2nn(-c3cccnc3)cc2c1 (stereo not drawn) [Compound 390] | ≥ 70% |  | 
24 | CCN=S(=O)(CC)c1ccc2nn(-c3cccnc3)cc2c1 (stereo not drawn) [Compound 391] |  | ≥ 70% | ≥ 70%

Row | Structure (SMILES) | mortality at 300 ppm [1] | mortality at 300 ppm [2] | mortality at 300 ppm [3]
25 | O=S(CC1CC1)(=NC1CC1)c1ccc2nn(-c3cncnc3)cc2c1 (stereo not drawn) [Compound 446] |  | ≥ 70% | ≥ 70%
26 | CN=S(=O)(CC1CC1)c1ccc2nn(-c3cncnc3)cc2c1 (stereo not drawn) [Compound 447] |  | ≥ 70% | ≥ 70%
27 | N=S(=O)(CC1CC1)c1ccc2nn(-c3cncnc3)cc2c1 (stereo not drawn) [Compound 450, (cyclopropylmethyl)(imino)(2-(pyrimidin-5-yl)-2H-indazol-5-yl)-λ^6-sulfanone] |  | ≥ 70% | ≥ 70%
28 | CCS(=O)(=NC(C)=O)c1ccc2nn(-c3cncnc3)cc2c1 (stereo not drawn) [Compound 456] | ≥ 70% |  | 
29 | CCS(=N)(=O)c1ccc2nn(-c3cncc(F)c3)cc2c1 (stereo not drawn) [Compound 460, ethyl(2-(5-fluoropyridin-3-yl)-2H-indazol-5-yl)(imino)-λ^6-sulfanone] | ≥ 70% |  | 
30 | CCS(=O)(=NC(C)=O)c1ccc2nn(-c3cncc(F)c3)cc2c1 (stereo not drawn) [Compound 462] |  | ≥ 70% | ≥ 70%
31 | CS(=N)(=O)c1ccc2nn(-c3cncnc3)cc2c1 (stereo not drawn) [Compound 470, imino(methyl)(2-(pyrimidin-5-yl)-2H-indazol-5-yl)-λ^6-sulfanone] |  | ≥ 70% | ≥ 70%
32 | CCN=S(C)(=O)c1ccc2nn(-c3cncnc3)cc2c1 (stereo not drawn) [Compound 474] |  | ≥ 70% | ≥ 70%
33 | CC(=O)N=S(C)(=O)c1ccc2nn(-c3cncnc3)cc2c1 (stereo not drawn) [Compound 475] |  | ≥ 70% | ≥ 70%
34 | CCCS(=O)(=NC(C)=O)c1ccc2nn(-c3cncc(F)c3)cc2c1 (stereo not drawn) [Compound 483] | ≥ 70% |  | 
35 | CC1(CS(=N)(=O)c2ccc3nn(-c4cncc(F)c4)cc3c2)COC1 (stereo not drawn) [Compound 484, (2-(5-fluoropyridin-3-yl)-2H-indazol-5-yl)(imino)((3-methyloxetan-3-yl)methyl)-λ^6-sulfanone] | ≥ 70% |  | 
36 | CCC(CC)S(=O)(=NC(C)=O)c1ccc2nn(-c3cncc(F)c3)cc2c1 (stereo not drawn) [Compound 485] | ≥ 70% |  | 
37 | CCC(C)S(=O)(=NC(C)=O)c1ccc2nn(-c3cncc(F)c3)cc2c1 (stereo not drawn) [Compound 486] | ≥ 70% |  | 
38 | CC(=O)N=S(=O)(CCCF)c1ccc2nn(-c3cncc(F)c3)cc2c1 (stereo not drawn) [Compound 487] | ≥ 70% |  | 
39 | N=S(=O)(c1ccc2nn(-c3cncc(F)c3)cc2c1)C1CCC1 (stereo not drawn) [Compound 488, cyclobutyl(2-(5-fluoropyridin-3-yl)-2H-indazol-5-yl)(imino)-λ^6-sulfanone] | ≥ 70% |  | 
40 | CCN=S(=O)(c1ccc2nn(-c3cncc(F)c3)cc2c1)C(C)CC (stereo not drawn) [Compound 490] | ≥ 70% |  | 
41 | CCN=S(=O)(CCCF)c1ccc2nn(-c3cncc(F)c3)cc2c1 (stereo not drawn) [Compound 491] | ≥ 70% |  | 
42 | CCN=S(=O)(c1ccc2nn(-c3cncc(F)c3)cc2c1)C(CC)CC (stereo not drawn) [Compound 492] | ≥ 70% |  | 
43 | N=S(=O)(c1ccc2nn(-c3cccnc3)cc2c1)C1CCCC1 (stereo not drawn) [Compound 558, cyclopentyl(imino)(2-(pyridin-3-yl)-2H-indazol-5-yl)-λ^6-sulfanone] | ≥ 70% |  | 
44 | N=S(=O)(c1ccc2nn(-c3cccnc3)cc2c1)C1CCCCC1 (stereo not drawn) [Compound 560, cyclohexyl(imino)(2-(pyridin-3-yl)-2H-indazol-5-yl)-λ^6-sulfanone] | ≥ 70% |  | 
45 | N#CCCCS(=N)(=O)c1ccc2nn(-c3cccnc3)cc2c1 (stereo not drawn) [Compound 564, 4-(2-(pyridin-3-yl)-2H-indazole-5-sulfonimidoyl)butanenitrile] | ≥ 70% |  | 
46 | CCN=S(=O)(c1ccc2nn(-c3cccnc3)cc2c1)C1CCC1 (stereo not drawn) [Compound 567] | ≥ 70% |  | 
47 | N=S(=O)(CC1CCCO1)c1ccc2nn(-c3cccnc3)cc2c1 (stereo not drawn) [Compound 569, imino(2-(pyridin-3-yl)-2H-indazol-5-yl)((tetrahydrofuran-2-yl)methyl)-λ^6-sulfanone] | ≥ 70% |  | 
48 | CC(=O)N=S(=O)(c1ccc2nn(-c3cccnc3)cc2c1)C1CCCC1 (stereo not drawn) [Compound 581] | ≥ 70% |  | 

Reference: patent US20250282754A1, “BICYCLIC COMPOUNDS AND THEIR USE AS PEST CONTROL AGENTS” (Pl Industries Ltd., priority 2022, published 2025)
